# Values joined by “and” are separate entries in the source; they are usually repeats but may differ in a detail not shown here. Equal values may be shown once. “Also recorded” adds a separate entry of the source. Read-outs that look alike come from different tables or passages of the source.
# Columns and labels:
# [1] = Rapamycin in lung and blood after oropharyngeal aspiration (OPA) and oral gavage, LC-MS/MS; type: in vivo, C57BL/6 mice
# Procedure: Dosing: Each animal was weighed prior to dosing to determine the amount of dose to be administered. A single gavage dose was administered using a 100-μL glass syringe (Hamilton, Reno, Nev.) fitted with a ball-tipped 20-G stainless steel gavage dosing needle (Popper & Sons Inc., New Hyde Park, N.Y.). The dose administered to each animal was determined from the weight of the full syringe minus that of the empty syringe. The dosing time was recorded. Dosing of animals was spaced apart to allow blood collection at the appropriate times. The dose formulations administered to each group are shown below.
# Each mouse was anesthetized with isoflurane and restrained with the mouth open. The tongue was held to one side of the mouth with forceps, and the dose was slowly injected into the distal part of the oral cavity. The nostrils were covered with a finger for two breaths to ensure aspiration (Rao et al., 2003).
# Collection of Blood and Lung Samples: At study termination (1 or 72 h after dosing), mice were anesthetized by exposure to CO2, and blood was collected by cardiac puncture with dipotassium EDTA as anticoagulant. Lung tissue was excised and divided into the right and left lung. The left lung was used for analysis, and the right lung flash frozen in liquid nitrogen and stored at −70° C. for further analysis.
# Triamcinolone was used as internal standard.
# Lung homogenate was prepared by homogenization of weighed lung samples with 2.8-mm ball bearings in a homogenizer with tissue+deionized water (1:3 w/v) in a SPEX SamplePrep 2010 Geno/Grinder.
# The concentrations of standards were arranged so that each standard came from an alternate stock standard. A six-point calibration curve, each made in triplicate, was employed for analyte quantitation. A simple linear regression model with or without weighting was employed for curve fitting. The concentration range determined was from 1-2000 ng/mL in blood and 2-2000 ng/mL in lung homogenate.
# Thirty (30) μL of matrix, 30 μL of spiking solution (methanol for blanks and samples), 10 μL Internal standard solution (in MeOH) and 90 μL of MeOH were pipetted into microcentrifuge tubes, vortexed briefly, then centrifuged for 6 min at 10,000 RPM at −4° C. Aliquots (90 μL) of supernatant were transferred to LC vial inserts, and then analyzed by LC-MS/MS (Table 2).
# [2] = Observation for adverse effects / clinical signs after dosing; type: in vivo, C57BL/6 mice; conditions: 1 mg/kg, up to 72 h following dosing
# Procedure: The oral dose was formulated using pharmaceutical oral liquid formulation Rapamune Oral® (Pfizer). […] An additional group of 6 mice received vehicle only (10% ethanol in water). […] At the 72-h necropsy, blood was obtained by cardiac puncture and the lungs removed.
# The time of dosing was recorded as 0. Animals in groups 2 and 3 were euthanized at 1 h after dosing.
# [3] = tested on: phosphorylated S6 (mTOR pathway); experiment: S6 phosphorylation by western blot in AML cells; type: cell-based, human; conditions: 20 nM, 24 hours
# [4] = tested on: phosphorylated S6 protein (biomarker for mTOR activity); experiment: S6 phosphorylation in mouse lung following oral and OPA administration; type: in vivo, C57bl/6 mice
# Text: To validate this approach, we used the presence of phosphorylated S6 protein in murine lung tissue as a biomarker for mTOR activity. In the mouse strain used (C57b1/6), the mouse airway and alveolar epithelial cells have constitutively active (phosphorylated, “p”) S6 protein. The S6 protein is typically phosphorylated by S6K which is downstream of mTORC1 and is activated, for example downstream of growth factors such as epidermal growth factor (EGF), AKT, ERK, and RSK. mTORC1 promotes cell growth and proliferation by stimulating anabolic processes such as biosynthesis of lipids, proteins, and organelles, and suppressing catabolic processes such as autophagy.
# [5] = tested on: Phospho-S6 Ribosomal Protein (Ser240/244); experiment: S6 phosphorylation in rat lung homogenate, western blot (S6-P/total S6); type: in vivo, Sprague-Dawley rats; conditions: inhalation, target dose 0.354 mg/kg
# Procedure: Lungs samples from each animal were collected and snap frozen. The individual frozen lung samples were homogenized (Qiagen TissueLyser LT according to manufacturer's protocols) in 1×RIPA Buffer with protease and phosphatase inhibitors. […] The Western blot images were analyzed by NIH image) v1.48 to generate the respective antibody reactivity/intensity and create the ratio of S6 phosphorylation (S6-P) to total S6 intensities for each lung sample. The 56-P/total S6 ratios (y-axis) for sample organized by timepoint group (X-axis) were plotted on a one grouping variable scatter plot vertical graph (GraphPad, version 4.0), all samples in groups are represented by filled in black dots (●) on the graph and average is shown by the horizontal line between the dots within each respective group (FIG. 8B).
# [6] = 28-day repeat daily dose inhalation toxicity and toxicokinetics, dog study 7300227; conditions: beagle, in vivo
# Text: For the dog study, a positive flow delivery system (PFDS) consisting of a central plenum and delivery arms was utilized. The central plenum was of modular design with separate ports into which were attached 5 delivery arms fitted with oronasal exposure masks fitted with inlet and outlet tubes. The mask was fitted over the dog's muzzle in such a way that the nose was inside the mask, allowing entrance and exit of air. During exposure, animals wore a harness and were placed on a restraint platform. The harness was attached to two side poles on the platform in order to restrict lateral movement of the dog. The front part of the harness was loosely attached to a hook on the front of the platform to prevent the animal from turning around. […] For each dosing group, one set of animals (N=6) was dosed for 60 minutes each day for 28 consecutive days.
# [7] = Extrapolation of rat and dog inhalation data to human dosing; conditions: extrapolated
# [8] = Particle size distribution by laser diffraction; type: physicochemical
# Procedure: For jet milling, a lab scale MCOne unit from Jetpharma was used with the following operating conditions: venturi pressure 2-4 bar, milling pressure 3-5 bar, feed rate 90 g/h. For wet polishing, feed suspensions were prepared using purified water. A microfluidics high pressure homogenizer was used for the size reduction step and the resulting suspension was spray-dried. Details of the wet polishing process are set forth below.
# The high pressure homogenizer used for the size reduction step of the wet polishing process was a pilot-scale Microfluidics High Pressure Homogenizer equipped with an auxiliary processing module (200 micron) and a 100 micron interaction chamber was used. The unit was operated at ˜455 bar (˜30 bar in the intensifier module hydraulic pressure). After microfluidization the fluid was removed by spray drying to generate a dry powder. A laboratory scale spray dryer, SD45 (BÜCHI, model B-290 Advanced) was equipped with a two fluid nozzle (cap and diameter were 1.4 and 0.7 mm, respectively). Two cyclones in series were used (being the first the standard Buchi cyclone and the second the high-performance Buchi cyclone) to collect the dried product. The spray drying unit was operated with nitrogen and in single pass mode, i.e. without recirculation of the drying nitrogen. The aspirator, blowing nitrogen, was set at 100% of its capacity (flow rate at maximum capacity is approximately 40 kg/h). The flow rate of the atomization nitrogen was adjusted to a value in the rotameter of 40±5 mm. Before feeding the product suspension, the spray dryer was stabilized with purified water, during which the flow rate was adjusted to 6 ml/min (20% in the peristaltic pump). The inlet temperature was adjusted to achieve the target outlet temperature (45° C.). After stabilization of the temperatures, the feed of the spray dryer was commuted from purified water to the product suspension (keeping the same flow rate used during stabilization) and the inlet temperature once again adjusted in order to achieve the target outlet temperature. At the end of the stock suspension, the feed was once more commuted to purified water in order to rinse the feed line and perform a controlled shut down. The dry product in the collection flasks under both cyclones was weighed and the yield calculated as the mass percentage of the dry product in relation to the total solids in the suspension fed to the high pressure homogenizer.
# Particle size distribution was analyzed by laser diffraction. Solid state characterization (for polymorphic form and purity) was performed by high pressure liquid chromatography (HPLC), X-ray powder diffraction (XRPD), and differential scanning calorimetry (mDSC). Water content was determined by the Karl Fischer method.
# [9] = IV 10 mg/kg single dose, 24 hours; cited from earlier work
# [10] = 24 hours after 14th dose, cited from earlier work
# [11] = human, Rapamune NDA 21-110 and 21-083; cited from earlier work
# [12] = lymphangioleiomyomatosis patients, McCormack et al. (2011); cited from earlier work
# in vivo = conditions: Sprague-Dawley, rat
# Procedure: (§1) A second repeat exposure study was conducted to evaluate the repeat dose toxicity and toxicokinetics of the dry powder formulation administered to SD rats and Beagle dogs for 28 days.
# (§2) For the rat study, standard cylindrical flow-through nose-only inhalation chambers were utilized, as above. […] For each of the three dosing groups, one set of animals (N=36) were dosed for 300 minutes each day for 28 consecutive days. On Study Days 1 and 28, blood samples were taken from animals in subgroups of 6 at the following time points: (1) Predose, (2) Midway dosing, (3) Immediate post dosing, (4) 2 hours post dosing, (5) 4 hours post dosing, (6) 12 hours post dosing and (7) 24 hours post dosing.
# [13] = tested on: TSC2 deficient TRI-AML101 cell line; experiment: Cell viability, CellTiter-Glo luminescence assay, 10 point dose response; conditions: 72 hours after compound addition, relative to DMSO control
# Procedure: Two thousand cells in 50 uL of growth media (DMEM, 10% FBS, and 1% Penicillin/Streptomycin) were plated per well in a 96 well plate. […] 72 hours after compound addition, relative cell viability was determined by CellTiter-Glo® luminescence assay (Promega) and expressed as a percentage relative to vehicle (DMSO) treated control cells.
# [14] = 28-day repeat daily dose inhalation toxicity and toxicokinetics, rat study 7300225; conditions: for Max blood levels: rat, average of D28
# Procedure: as §1, §2
# [15] = 2012 meta-analysis of published trials; cited from earlier work
# [16] = emitted dose 87 ug, repeat inhaled daily dose 35 ug
# [17] = emitted dose 175 ug, repeat inhaled daily dose 70 ug
compound,measurement,setting,value
CO[C@H]1C[C@@H]2CC[C@@H](C)[C@@](O)(O2)C(=O)C(=O)N2CCCC[C@H]2C(=O)O[C@H]([C@H](C)C[C@@H]2CC[C@@H](O)[C@H](OC)C2)CC(=O)[C@H](C)/C=C(\C)[C@@H](O)[C@@H](OC)C(=O)[C@H](C)C[C@H](C)/C=C/C=C/C=C/1C [Rapamycin],Rapamycin in Blood,"[1]; OPA 1 mg/kg, 72 h",below the limit of quantitation; also recorded: undetectable
same,Blood concentration,"[1]; OPA 1 mg/kg, 72 h post-dose, individual animal",<ELOQ
same,Lung concentration,"[1]; gavage (Rapamune Oral) 1 mg/kg, 1 h post-dose, individual animal, 1 mg/kg",<LOQ
same,rapamycin in lung or blood,"[1]; oral (gavage) 1 mg/kg, 72 hrs",undetectable
same,adverse effects / clinical signs,[2],No adverse effects were observed; also recorded: No significant clinical signs were observed
same,S6 phosphorylation,[3],potently inhibits S6 phosphorylation
same,level of phosphorylated S6 (pS6) in lung,"[4]; 1 mg/kg OPA, 1 hr",reduced substantially
same,level of phosphorylated S6 (pS6) in lung,"[4]; 1 mg/kg OPA, 72 hr",remained suppressed
same,level of phosphorylated S6 (pS6) in lung,"[4]; 1 mg/kg oral gavage, 1 hr",reduced substantially
same,S6 phosphorylation in lung tissue,[5],Inhibits S6 Phosphorylation
same,NOAEL at 28 days,[6],0.0134 mg/kg/day
same,Blood trough levels,[7]; [16],0.15 ng/mL
same,Lung 24 hr trough levels,[7]; [16],2 ng/g
same,Max blood levels,[7]; [16],0.65 ng/mL
same,Blood trough levels,[7]; [17],0.3 ng/mL
same,Lung 24 hr trough levels,[7]; [17],4 ng/g
same,Max blood levels,[7]; [17],1.3 ng/mL
same,PSD Dv10,[8]; jet milling,1.5 μm and 1.51 μm
same,PSD Dv50,[8]; jet milling,2.7 μm and 2.74 μm
same,PSD Dv90,[8]; jet milling,4.9 μm and 4.91 μm
same,PSD Dv10,[8]; wet polishing,1.0 μm and 1.05 μm
same,PSD Dv50,[8]; wet polishing,2.4 μm and 2.42 μm
same,PSD Dv90,[8]; wet polishing,5.0 μm and 4.97 μm
same,Rapamycin in Blood,[9],31 ng/mL
same,Rapamycin in Lung,[9],721 ng/g
same,Rapamycin in Blood,[10]; IV 0.04 mg/kg/day,9.4 ng/mL
same,Rapamycin in Lung,[10]; IV 0.04 mg/kg/day,219 ng/g
same,Rapamycin in Blood,[10]; IV 0.08 mg/kg/day,15.0 ng/mL
same,Rapamycin in Lung,[10]; IV 0.08 mg/kg/day,457 ng/g
same,Rapamycin in Blood,[10]; IV 0.40 mg/kg/day,19.6 ng/mL
same,Rapamycin in Lung,[10]; IV 0.40 mg/kg/day,868 ng/g
same,Rapamycin in Blood,[10]; oral 0.4 mg/kg/day,0.8 ng/mL
same,Rapamycin in Lung,[10]; oral 0.4 mg/kg/day,42 ng/g
same,Rapamycin in Blood,[10]; oral 0.8 mg/kg/day,2.1 ng/mL
same,Rapamycin in Lung,[10]; oral 0.8 mg/kg/day,59 ng/g
same,clearance,[11],0.0003 min⁻¹
same,blood concentrations,[12],5 to 15 ng/mL
same,NOAEL at 28 days,in vivo,8.91 mg/kg/day
same,lowest concentration inhibiting viability,[13],0.05 nM
same,respiratory function,[14]; nose-only inhalation,no changes in respiratory function
same,Max blood levels,"[14]; emitted dose 50 ug, repeat inhaled daily dose 5 ug",7.6 ng/mL
same,Max blood levels,"[14]; emitted dose 1425 ug, repeat inhaled daily dose 143 ug",70.5 ng/mL
same,Max blood levels,"[14]; emitted dose 2850 ug, repeat inhaled daily dose 285 ug",77.8 ng/mL
CO[C@H]1C[C@@H]2CC[C@@H](C)[C@@](O)(O2)C(=O)C(=O)N2CCCC[C@H]2C(=O)O[C@H]([C@H](C)C[C@@H]2CC[C@@H](OCCO)[C@H](OC)C2)CC(=O)[C@H](C)/C=C(\C)[C@@H](O)[C@@H](OC)C(=O)[C@H](C)C[C@H](C)/C=C/C=C/C=C/1C [everolimus],cancer patients experiencing mild grade pulmonary toxicity,[15],10%
CO[C@H]1C[C@@H]2CC[C@@H](C)[C@@](O)(O2)C(=O)C(=O)N2CCCC[C@H]2C(=O)O[C@H]([C@H](C)C[C@@H]2CC[C@@H](OC(=O)C(C)(CO)CO)[C@H](OC)C2)CC(=O)[C@H](C)/C=C(\C)[C@@H](O)[C@@H](OC)C(=O)[C@H](C)C[C@H](C)/C=C/C=C/C=C/1C [temsirolimus],cancer patients experiencing mild grade pulmonary toxicity,[15],10%
